Test results reported in patent publication US6376430B1, “Enhancement of seed yield of soybeans by a substituted benzoyl urea” (Uniroyal Chemical Company, Inc., priority 1997, dated 2002).

Columns and labels:
soybean = conditions: cited from earlier work
determinate soybeans = test: Field applications on determinate soybeans (29 site data base), seed yield; assay type: in vivo, soybean; conditions: for determinate soybean yields: Diflubenzuron 0.035 kg/ha, BENLATE 0.56 to 0.84 kg/ha, applied from R2 through R5 growth stages, untreated control 2190 kg/ha; for yield increase over the untreated control: one or two field applications of Diflubenzuron at 0.034 kg ai/ha, 29 sites, determinate soybeans
Description: In this invention, Diflubenzuron is typically sprayed during the period from R2 through R5 for controlling foliar feeding insects. In the States of Mississippi, Florida, Tennessee, Illinois, Arkansas, Louisiana, and Texas results have been compiled where one or two field applications of Diflubenzuron at 0.034 kg ai/ha (0.031 lb ai/acre) were applied to control insects on the determinate soybeans planted. A fungicide, Benomyl, methyl-1-(butylcarbamoyl)-2-benzamidazolecarbamate [CAS 17804-35-2], available as BENLATE™ from DuPont deNemour, Wilmington, Del., was also applied alone or in combination with Diflubenzuron for fungal pathogen control.

indeterminate soybeans = test: Field applications on northern indeterminate soybean varieties (25 sites), seed yield, pod counts, seed size; assay type: in vivo
Description: Diflubenzuron alone gave a 376 kg/ha (5.6 bu/acre) increase over the untreated control; the addition of Benomyl (methyl-1-(butylcarbamoyl)-2-benzamidazolecarbamate) only conferred another 0.5 bushel increase. There were no reported foliar feeding insect infestations of significance in any of the trials.
This is a similar % increase to the increased seed yields found in Table 3. […] Thus Diflubenzuron may be more consistent than TIBA in generating soybean seed yield increases since Diflubenzuron is not visually altering the carbon fixation pool of the plant.

Compound: O=C(O)c1cc(I)cc(I)c1I [TIBA, 2,3,5-triiodobenzoic acid]
- total seed number per plant (soybean; literature (Bauer et al., 1969; Burton and Curley, 1966; Hicks et al., 1967)): increase
- seed yield (soybean; literature, smaller seeds were formed): no corresponding increase

Compound: CCCCNC(=O)n1c(NC(=O)OC)nc2ccccc21 [Benomyl, methyl-1-(butylcarbamoyl)-2-benzamidazolecarbamate]
- determinate soybean yields (determinate soybeans): 2439 kg/ha
- yield increase over the untreated control (determinate soybeans): 3.7 bushels/acre

Compound: O=C(NC(=O)c1c(F)cccc1F)Nc1ccc(Cl)cc1 [Diflubenzuron, N-(2,6-difluorobenzoyl)-N′-(4-chlorophenyl)urea]
- determinate soybean yields (determinate soybeans): 2378 kg/ha
- yield increase over the untreated control (determinate soybeans): 2.8 bushels/acre
- visual alteration of the soybean plant canopy (indeterminate soybeans; any research trial): has not been noted
- seed size variation across varieties (indeterminate soybeans; no correlation to application time of Diflubenzuron): ~2%
- pod counts from plants, higher in relation to the untreated control (indeterminate soybeans; preliminary results, indeterminate soybean trials): approximately 16%
